For one data set, the system named is BACE. Conditions: nonhuman primates; cited from earlier work.
The conditions of data set [1]: cited from earlier work.
The conditions of data set [2]: higher compound dose given for three months; cited from earlier work.
The target in data set [3] is T1, BACE1 (Homo sapiens (Human), UniProt P56817). The data set can be described thus: In vitro enzymatic BACE1 FRET assay. It is filed as biochemical. To be noted: read-out: BACE1 Enzyme IC50.
Target sequence in this assay (P56817 46-501): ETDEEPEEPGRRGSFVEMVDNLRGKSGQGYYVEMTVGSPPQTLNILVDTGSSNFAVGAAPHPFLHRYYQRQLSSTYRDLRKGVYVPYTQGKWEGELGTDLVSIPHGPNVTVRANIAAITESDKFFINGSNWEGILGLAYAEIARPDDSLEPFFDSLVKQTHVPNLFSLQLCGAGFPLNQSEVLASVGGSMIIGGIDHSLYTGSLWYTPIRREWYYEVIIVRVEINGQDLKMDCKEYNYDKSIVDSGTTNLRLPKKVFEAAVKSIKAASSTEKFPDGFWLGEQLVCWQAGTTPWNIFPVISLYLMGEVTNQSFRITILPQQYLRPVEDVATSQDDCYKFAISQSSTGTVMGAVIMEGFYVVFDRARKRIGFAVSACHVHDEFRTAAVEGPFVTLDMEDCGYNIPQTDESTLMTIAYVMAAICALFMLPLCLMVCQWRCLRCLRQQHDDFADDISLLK
The target of data set [4] is T1, BACE1. In words: In vitro BACE1 cell-based assay (Aβ40 in conditioned medium of cells stably expressing APP, HTRF). Conditions: Aβ40 in conditioned media after 24 h incubation. A general note: TR-FRET usually uses a lanthanide donor and a delayed reading to cut background.
Target sequence in this assay (P56817 46-501, species assumed): as the sequence (P56817 46-501) above
In another data set the target is human recombinant BACE2 (Homo sapiens (Human), UniProt Q9Y5Z0). In words: In vitro enzymatic BACE2 FRET assay. The data set is classed as biochemical. Conditions: read-out: BACE2 Enzyme IC50.
Sequence of human recombinant BACE2 (Q9Y5Z0 63-518): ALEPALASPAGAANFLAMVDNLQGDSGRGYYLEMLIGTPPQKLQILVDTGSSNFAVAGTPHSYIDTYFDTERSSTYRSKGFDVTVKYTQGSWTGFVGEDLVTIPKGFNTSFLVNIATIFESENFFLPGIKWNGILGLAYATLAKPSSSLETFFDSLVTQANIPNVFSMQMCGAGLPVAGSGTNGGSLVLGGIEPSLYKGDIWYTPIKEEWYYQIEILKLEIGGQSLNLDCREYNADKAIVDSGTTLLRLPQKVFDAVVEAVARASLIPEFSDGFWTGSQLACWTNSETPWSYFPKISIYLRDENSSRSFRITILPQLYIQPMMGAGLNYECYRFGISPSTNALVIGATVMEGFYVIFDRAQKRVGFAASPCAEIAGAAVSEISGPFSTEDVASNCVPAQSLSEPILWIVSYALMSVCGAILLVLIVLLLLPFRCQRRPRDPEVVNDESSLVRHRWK
A further data set deals with Cathepsin D (CatD) (Homo sapiens (Human), UniProt P07339). In words: In vitro enzymatic Cathepsin D (CatD) FRET assay. It is filed as biochemical. To be noted: read-out: Cat D Enzyme IC50.
Sequence of Cathepsin D (CatD) (P07339 65-412, species assumed): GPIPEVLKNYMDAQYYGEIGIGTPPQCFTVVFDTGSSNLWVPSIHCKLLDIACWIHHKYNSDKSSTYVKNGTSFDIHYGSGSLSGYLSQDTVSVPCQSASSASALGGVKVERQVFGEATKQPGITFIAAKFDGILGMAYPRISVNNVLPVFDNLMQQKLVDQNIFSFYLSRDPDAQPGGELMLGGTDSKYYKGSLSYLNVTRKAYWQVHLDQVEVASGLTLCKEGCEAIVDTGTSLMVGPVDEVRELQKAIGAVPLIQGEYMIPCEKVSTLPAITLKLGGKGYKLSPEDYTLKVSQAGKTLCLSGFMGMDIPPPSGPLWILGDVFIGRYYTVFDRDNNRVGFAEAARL
The next data set concerns the target β-secretase (Rattus norvegicus (Rat), UniProt P56819). In words: In vivo inhibition of β-secretase: Aβ reduction in rat CSF and brain.

The source of these data is patent US11021493B2, “1,4-thiazine dioxide and 1,2,4-thiadiazine dioxide derivatives as beta-secretase inhibitors and methods of use” (AMGEN INC., priority 2016, dated 2021).

Structures are written as SMILES.

Sequence of β-secretase (P56819 46-501): as the sequence (P56817 46-501) above, with G82S, V162I, L165I, S180T, V182A, I340V, L393A, Q443H counted along it
Description for β-secretase: In Vivo Inhibition of β-Secretase
Animals to be used in this experiment can be wild type, transgenic, or gene knockout animals.
A separate group of animals receive 2% hydroxypropyl methylcellulose, 1% Tween80 alone, containing no test compound, and serve as a vehicle-control group. At the end of the test period, animals are sacrificed and brain tissues, plasma or cerebrospinal fluid are collected. […] Homogenates are centrifuged at 355,000 g, 4° C. for 30 minutes. CSF or brain supernatants are then analyzed for the presence of Aβ by specific sandwich ELISA assays based on ECL (Electrochemiluminescence) technology. For example, rat Aβ40 is measured using biotinylated-4G8 (Signet) as a capture antibody and Fab40 (an in-house antibody specific to the C-terminal of Aβ40) as a detection antibody.

With `C[C@H]1OC[C@]2(c3cc(NC(=O)c4cnc(C(F)F)cn4)ccc3F)N=C(N)SC[C@H]12` [Example E2609], the “Aβ peptide levels in the CSF and plasma” value with BACE was “significant reduction”. Besides, the clinical safety entry in data set [1] (repeated doses up to 200 mg, phase I clinical trial) is reported as “did not show clinical significant safety concerns”.

As to `CN1C(=N)N[C@](C)(c2cc(NC(=O)c3ccc(F)cn3)ccc2F)CS1(=O)=O` [MK-8931], the safety profile result in data set [1] (phase I clinical trials) is on record as “no immediately noticeable side effects”.

Take `C[C@@]1(c2cc(-c3cncnc3)c(F)cc2F)CCSC(N)=N1` [LY 2811376]: the eye toxicity result in data set [2] is reported as “damaged the pigment epithelium of the rat's eye”.

Usually IC50 stands for the concentration at which inhibition is half-maximal. For `Cc1noc(COc2cnc(/C(F)=C/c3ccc(F)c([C@]4(C)CS(=O)(=O)N(C)C(N)=N4)c3)cn2)n1` [Example 146, (R,Z)-3-amino-5-(2-fluoro-5-(2-fluoro-2-(5-((3-methyl-1,2,4-oxadiazol-5-yl)methoxy)pyrazin-2-yl)vinyl)phenyl)-2,5-dimethyl-5,6-dihydro-2H-1,2,4-thiadiazine 1,1-dioxide], the half-maximal inhibitory concentration (IC50) came out at 3 nM on BACE1 [3], 6 nM on BACE1 [4], 97 nM at human recombinant BACE2 and 151000 nM on Cathepsin D (CatD). Besides, on β-secretase, the “% Aβ reduction in rat CSF at 10 mpk” value is given as 12%. Besides, the “% Aβ reduction in rat brain at 10 mpk” value at β-secretase is on record as 16%.

As to `C#C[C@H](C)Oc1cnc(/C(F)=C/c2ccc(F)c([C@@]3(C)N=C(N)N(C)S(=O)(=O)C3(C)C)c2)cn1` [Example 186, (R)-3-amino-5-(5-((Z)-2-(5-((S)-but-3-yn-2-yloxy)pyrazin-2-yl)-2-fluorovinyl)-2-fluorophenyl)-2,5,6,6-tetramethyl-5,6-dihydro-2H-1,2,4-thiadiazine 1,1-dioxide], the IC50 on BACE1 [3] stood at 5 nM; against BACE1 [4], 24 nM; on human recombinant BACE2 it was 451 nM; at Cathepsin D (CatD) it was 375000 nM. Also, the “% Aβ reduction in rat CSF at 10 mpk” value at β-secretase turned out to be 19%. The “% Aβ reduction in rat brain at 10 mpk” value on β-secretase was found to be 43%.

Consider `CN1C(N)=N[C@](C)(c2cc(/C=C(\F)c3ccc(C#N)cn3)ccc2F)C2(CC2)S1(=O)=O` [Example 127, (R,Z)-6-(2-(3-(6-amino-5,8-dimethyl-4,4-dioxido-4-thia-5,7-diazaspiro[2.5]oct-6-en-8-yl)-4-fluorophenyl)-1-fluorovinyl)nicotinonitrile], for which the half-maximal inhibitory concentration (IC50) stood at 6 nM at BACE1 [3], 8 nM against BACE1 [4], 175 nM on human recombinant BACE2 and 129000 nM on Cathepsin D (CatD). Besides, at β-secretase, the “% Aβ reduction in rat CSF at 10 mpk” value came to 64%. Besides, at β-secretase, the “% Aβ reduction in rat brain at 10 mpk” value amounted to 70%.

On to `C#CCOc1cnc(/C(F)=C/c2cnc(F)c([C@]3(C)CS(=O)(=O)C(C)(C)C(N)=N3)c2)cn1` [Example 205, (R,Z)-5-amino-3-(2-fluoro-5-(2-fluoro-2-(5-(prop-2-yn-1-yloxy)pyrazin-2-yl)vinyl)pyridin-3-yl)-3,6,6-trimethyl-3,6-dihydro-2H-1,4-thiazine 1,1-dioxide], for which the 50% inhibitory concentration (IC50) was 5 nM on BACE1 [3], 7 nM against BACE1 [4], 129 nM on human recombinant BACE2 and 244000 nM on Cathepsin D (CatD). For the same compound, the “% Aβ reduction in rat CSF at 10 mpk” value at β-secretase was 68%. For the same compound, the “% Aβ reduction in rat brain at 10 mpk” value at β-secretase is listed as 65%.
